Measurements from ChEMBL document CHEMBL5291721, “A preclinical secondary pharmacology resource illuminates target-adverse drug reaction associations of marketed drugs” (Nat Commun, 2023).

Columns and labels:
[1] = molecular target: Beta-2 adrenergic receptor (Homo sapiens, UniProt P07550); assay type: functional, cell-based
[2] = molecular target: Voltage-dependent L-type calcium channel subunit alpha-1C (Rattus norvegicus, UniProt P22002); assay type: functional
[3] = molecular target: T1, Muscarinic acetylcholine receptor M1 (Homo sapiens, UniProt P11229); assay type: functional
T1 sequence (P11229 whole entry): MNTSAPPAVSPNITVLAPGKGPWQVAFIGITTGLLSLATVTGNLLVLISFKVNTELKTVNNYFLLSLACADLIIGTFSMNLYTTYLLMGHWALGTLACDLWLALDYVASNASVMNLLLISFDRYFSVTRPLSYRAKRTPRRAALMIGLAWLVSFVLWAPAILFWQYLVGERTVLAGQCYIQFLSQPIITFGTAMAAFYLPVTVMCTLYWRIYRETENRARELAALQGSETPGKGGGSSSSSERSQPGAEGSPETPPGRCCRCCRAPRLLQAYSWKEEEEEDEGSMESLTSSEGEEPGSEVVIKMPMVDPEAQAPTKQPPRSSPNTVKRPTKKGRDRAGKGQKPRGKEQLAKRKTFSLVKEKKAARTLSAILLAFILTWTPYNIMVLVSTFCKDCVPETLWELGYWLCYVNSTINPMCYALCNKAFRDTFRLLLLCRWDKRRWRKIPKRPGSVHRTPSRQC

[4] = molecular target: T2, Endothelin-1 receptor (Homo sapiens, UniProt P25101)
T2 sequence (P25101 whole entry): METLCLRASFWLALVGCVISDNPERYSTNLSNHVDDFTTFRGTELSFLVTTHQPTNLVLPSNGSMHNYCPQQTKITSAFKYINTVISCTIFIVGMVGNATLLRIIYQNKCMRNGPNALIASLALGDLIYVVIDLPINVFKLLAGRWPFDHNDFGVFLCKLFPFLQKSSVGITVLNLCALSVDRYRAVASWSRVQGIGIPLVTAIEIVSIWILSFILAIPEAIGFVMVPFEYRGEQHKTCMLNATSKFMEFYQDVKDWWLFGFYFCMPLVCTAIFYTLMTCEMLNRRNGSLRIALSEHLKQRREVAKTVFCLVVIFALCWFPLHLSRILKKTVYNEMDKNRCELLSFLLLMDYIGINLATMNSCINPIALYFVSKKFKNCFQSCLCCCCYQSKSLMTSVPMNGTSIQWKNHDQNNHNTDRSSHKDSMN

[5] = molecular target: Melanocortin receptor 4 (Homo sapiens, UniProt P32245)
Sequence of Melanocortin receptor 4 (P32245 whole entry): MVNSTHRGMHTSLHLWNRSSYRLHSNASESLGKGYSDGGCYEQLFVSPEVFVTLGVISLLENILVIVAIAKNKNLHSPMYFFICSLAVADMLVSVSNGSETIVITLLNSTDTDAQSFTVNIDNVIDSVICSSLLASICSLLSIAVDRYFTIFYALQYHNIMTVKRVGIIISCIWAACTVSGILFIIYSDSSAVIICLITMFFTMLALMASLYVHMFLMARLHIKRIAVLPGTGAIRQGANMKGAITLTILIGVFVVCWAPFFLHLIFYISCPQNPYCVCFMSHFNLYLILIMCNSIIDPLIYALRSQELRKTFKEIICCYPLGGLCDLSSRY

[6] = molecular target: T3, Neuropeptide Y receptor type 1 (Homo sapiens, UniProt P25929)
T3 sequence (P25929 whole entry): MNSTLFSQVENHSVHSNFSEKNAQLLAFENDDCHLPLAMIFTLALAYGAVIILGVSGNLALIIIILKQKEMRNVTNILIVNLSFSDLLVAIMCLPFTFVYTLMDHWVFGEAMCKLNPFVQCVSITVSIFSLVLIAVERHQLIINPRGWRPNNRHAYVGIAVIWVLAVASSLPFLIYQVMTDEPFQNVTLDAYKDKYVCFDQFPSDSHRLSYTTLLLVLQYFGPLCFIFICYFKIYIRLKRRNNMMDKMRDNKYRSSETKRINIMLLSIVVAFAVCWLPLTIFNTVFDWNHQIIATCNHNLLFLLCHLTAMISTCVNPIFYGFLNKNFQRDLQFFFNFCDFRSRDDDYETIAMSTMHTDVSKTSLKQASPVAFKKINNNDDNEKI

[7] = molecular target: Acetylcholinesterase (Homo sapiens, UniProt P22303); assay type: functional
Sequence of Acetylcholinesterase (P22303 whole entry): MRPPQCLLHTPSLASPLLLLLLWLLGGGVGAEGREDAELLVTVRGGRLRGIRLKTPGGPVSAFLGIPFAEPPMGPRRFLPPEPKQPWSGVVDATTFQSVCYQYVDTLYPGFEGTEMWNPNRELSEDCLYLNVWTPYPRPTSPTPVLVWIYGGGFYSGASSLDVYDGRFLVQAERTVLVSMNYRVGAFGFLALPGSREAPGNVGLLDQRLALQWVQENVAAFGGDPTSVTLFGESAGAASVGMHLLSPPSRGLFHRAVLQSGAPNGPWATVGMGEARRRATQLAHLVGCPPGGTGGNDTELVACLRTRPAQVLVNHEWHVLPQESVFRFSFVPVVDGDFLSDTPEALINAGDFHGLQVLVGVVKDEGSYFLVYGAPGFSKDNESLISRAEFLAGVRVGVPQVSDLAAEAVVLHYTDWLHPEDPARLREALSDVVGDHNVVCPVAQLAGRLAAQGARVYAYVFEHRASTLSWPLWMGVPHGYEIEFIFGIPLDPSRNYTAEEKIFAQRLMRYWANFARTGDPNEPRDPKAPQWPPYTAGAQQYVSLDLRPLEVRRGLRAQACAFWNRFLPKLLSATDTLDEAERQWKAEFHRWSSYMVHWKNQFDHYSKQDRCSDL

[8] = molecular target: T4, Alpha-2A adrenergic receptor (Homo sapiens, UniProt P08913)
T4 sequence (P08913 whole entry): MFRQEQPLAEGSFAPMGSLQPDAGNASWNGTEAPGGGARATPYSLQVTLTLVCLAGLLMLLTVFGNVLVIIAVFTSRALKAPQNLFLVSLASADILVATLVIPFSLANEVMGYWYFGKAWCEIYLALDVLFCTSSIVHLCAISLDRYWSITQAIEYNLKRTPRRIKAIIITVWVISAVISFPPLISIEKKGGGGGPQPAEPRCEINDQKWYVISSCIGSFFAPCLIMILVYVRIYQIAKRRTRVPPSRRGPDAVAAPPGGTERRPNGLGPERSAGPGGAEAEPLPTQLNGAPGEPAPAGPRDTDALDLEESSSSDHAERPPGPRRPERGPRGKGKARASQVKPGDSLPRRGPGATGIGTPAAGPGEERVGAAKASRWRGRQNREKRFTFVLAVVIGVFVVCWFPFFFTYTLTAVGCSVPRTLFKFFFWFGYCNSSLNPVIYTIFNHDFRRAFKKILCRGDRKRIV

[9] = molecular target: Prothrombin (Homo sapiens, UniProt P00734); assay type: functional
[10] = molecular target: Kappa-type opioid receptor (Homo sapiens, UniProt P41145)
Sequence of Kappa-type opioid receptor (P41145 whole entry): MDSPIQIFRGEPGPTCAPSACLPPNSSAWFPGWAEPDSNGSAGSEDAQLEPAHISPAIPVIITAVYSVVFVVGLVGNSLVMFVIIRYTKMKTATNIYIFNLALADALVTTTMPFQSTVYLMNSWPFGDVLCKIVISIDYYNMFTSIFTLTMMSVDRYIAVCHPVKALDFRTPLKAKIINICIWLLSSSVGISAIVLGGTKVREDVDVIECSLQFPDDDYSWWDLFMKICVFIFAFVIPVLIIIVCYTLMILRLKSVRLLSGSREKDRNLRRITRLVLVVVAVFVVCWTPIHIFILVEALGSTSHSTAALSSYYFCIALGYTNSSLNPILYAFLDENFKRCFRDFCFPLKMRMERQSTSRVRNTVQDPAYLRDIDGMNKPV

[11] = molecular target: cGMP-inhibited 3',5'-cyclic phosphodiesterase 3A (Homo sapiens, UniProt Q14432); assay type: functional
Sequence of cGMP-inhibited 3',5'-cyclic phosphodiesterase 3A (Q14432 whole entry): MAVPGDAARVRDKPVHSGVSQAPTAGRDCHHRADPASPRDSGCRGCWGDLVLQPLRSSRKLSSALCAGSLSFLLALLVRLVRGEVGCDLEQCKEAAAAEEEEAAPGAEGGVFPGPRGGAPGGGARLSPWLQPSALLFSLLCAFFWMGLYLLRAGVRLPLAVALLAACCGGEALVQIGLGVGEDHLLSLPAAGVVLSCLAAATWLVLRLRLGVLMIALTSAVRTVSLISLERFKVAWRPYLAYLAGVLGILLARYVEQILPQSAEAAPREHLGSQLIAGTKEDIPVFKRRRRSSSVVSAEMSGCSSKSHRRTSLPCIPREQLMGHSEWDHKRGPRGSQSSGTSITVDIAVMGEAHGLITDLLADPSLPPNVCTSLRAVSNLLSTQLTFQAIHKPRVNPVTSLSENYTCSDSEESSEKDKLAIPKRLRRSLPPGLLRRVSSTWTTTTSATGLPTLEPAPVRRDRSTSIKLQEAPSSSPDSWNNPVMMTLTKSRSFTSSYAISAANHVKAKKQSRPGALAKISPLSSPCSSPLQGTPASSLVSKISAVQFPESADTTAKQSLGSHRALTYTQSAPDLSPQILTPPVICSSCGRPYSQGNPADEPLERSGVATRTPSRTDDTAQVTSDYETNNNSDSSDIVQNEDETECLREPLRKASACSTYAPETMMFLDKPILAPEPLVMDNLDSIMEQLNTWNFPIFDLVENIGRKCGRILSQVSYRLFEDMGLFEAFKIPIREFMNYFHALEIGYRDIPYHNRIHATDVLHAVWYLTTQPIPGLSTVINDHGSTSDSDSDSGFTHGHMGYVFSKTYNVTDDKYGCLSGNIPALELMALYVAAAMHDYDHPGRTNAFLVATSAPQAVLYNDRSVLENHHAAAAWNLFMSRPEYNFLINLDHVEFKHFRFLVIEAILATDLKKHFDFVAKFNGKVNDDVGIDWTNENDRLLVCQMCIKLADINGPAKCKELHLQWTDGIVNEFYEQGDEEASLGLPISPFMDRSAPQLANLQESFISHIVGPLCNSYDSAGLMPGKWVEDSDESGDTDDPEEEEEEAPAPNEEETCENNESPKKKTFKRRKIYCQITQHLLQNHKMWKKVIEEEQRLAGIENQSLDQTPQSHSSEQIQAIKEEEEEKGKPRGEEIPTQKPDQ
Note: assay procedure not described here.

Sequence of Beta-2 adrenergic receptor (P07550 whole entry): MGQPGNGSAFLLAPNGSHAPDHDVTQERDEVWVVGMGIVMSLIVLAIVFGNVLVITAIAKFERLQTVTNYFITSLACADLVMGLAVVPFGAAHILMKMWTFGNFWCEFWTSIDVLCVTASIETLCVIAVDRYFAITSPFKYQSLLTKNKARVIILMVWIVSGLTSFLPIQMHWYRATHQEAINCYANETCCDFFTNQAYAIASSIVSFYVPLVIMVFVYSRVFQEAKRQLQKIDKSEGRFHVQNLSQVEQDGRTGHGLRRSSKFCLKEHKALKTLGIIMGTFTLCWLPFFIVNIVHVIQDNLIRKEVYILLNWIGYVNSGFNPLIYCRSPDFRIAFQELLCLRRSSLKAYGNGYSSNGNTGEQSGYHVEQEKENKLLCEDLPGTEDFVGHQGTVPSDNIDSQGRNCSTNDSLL
Sequence of Voltage-dependent L-type calcium channel subunit alpha-1C (P22002 whole entry): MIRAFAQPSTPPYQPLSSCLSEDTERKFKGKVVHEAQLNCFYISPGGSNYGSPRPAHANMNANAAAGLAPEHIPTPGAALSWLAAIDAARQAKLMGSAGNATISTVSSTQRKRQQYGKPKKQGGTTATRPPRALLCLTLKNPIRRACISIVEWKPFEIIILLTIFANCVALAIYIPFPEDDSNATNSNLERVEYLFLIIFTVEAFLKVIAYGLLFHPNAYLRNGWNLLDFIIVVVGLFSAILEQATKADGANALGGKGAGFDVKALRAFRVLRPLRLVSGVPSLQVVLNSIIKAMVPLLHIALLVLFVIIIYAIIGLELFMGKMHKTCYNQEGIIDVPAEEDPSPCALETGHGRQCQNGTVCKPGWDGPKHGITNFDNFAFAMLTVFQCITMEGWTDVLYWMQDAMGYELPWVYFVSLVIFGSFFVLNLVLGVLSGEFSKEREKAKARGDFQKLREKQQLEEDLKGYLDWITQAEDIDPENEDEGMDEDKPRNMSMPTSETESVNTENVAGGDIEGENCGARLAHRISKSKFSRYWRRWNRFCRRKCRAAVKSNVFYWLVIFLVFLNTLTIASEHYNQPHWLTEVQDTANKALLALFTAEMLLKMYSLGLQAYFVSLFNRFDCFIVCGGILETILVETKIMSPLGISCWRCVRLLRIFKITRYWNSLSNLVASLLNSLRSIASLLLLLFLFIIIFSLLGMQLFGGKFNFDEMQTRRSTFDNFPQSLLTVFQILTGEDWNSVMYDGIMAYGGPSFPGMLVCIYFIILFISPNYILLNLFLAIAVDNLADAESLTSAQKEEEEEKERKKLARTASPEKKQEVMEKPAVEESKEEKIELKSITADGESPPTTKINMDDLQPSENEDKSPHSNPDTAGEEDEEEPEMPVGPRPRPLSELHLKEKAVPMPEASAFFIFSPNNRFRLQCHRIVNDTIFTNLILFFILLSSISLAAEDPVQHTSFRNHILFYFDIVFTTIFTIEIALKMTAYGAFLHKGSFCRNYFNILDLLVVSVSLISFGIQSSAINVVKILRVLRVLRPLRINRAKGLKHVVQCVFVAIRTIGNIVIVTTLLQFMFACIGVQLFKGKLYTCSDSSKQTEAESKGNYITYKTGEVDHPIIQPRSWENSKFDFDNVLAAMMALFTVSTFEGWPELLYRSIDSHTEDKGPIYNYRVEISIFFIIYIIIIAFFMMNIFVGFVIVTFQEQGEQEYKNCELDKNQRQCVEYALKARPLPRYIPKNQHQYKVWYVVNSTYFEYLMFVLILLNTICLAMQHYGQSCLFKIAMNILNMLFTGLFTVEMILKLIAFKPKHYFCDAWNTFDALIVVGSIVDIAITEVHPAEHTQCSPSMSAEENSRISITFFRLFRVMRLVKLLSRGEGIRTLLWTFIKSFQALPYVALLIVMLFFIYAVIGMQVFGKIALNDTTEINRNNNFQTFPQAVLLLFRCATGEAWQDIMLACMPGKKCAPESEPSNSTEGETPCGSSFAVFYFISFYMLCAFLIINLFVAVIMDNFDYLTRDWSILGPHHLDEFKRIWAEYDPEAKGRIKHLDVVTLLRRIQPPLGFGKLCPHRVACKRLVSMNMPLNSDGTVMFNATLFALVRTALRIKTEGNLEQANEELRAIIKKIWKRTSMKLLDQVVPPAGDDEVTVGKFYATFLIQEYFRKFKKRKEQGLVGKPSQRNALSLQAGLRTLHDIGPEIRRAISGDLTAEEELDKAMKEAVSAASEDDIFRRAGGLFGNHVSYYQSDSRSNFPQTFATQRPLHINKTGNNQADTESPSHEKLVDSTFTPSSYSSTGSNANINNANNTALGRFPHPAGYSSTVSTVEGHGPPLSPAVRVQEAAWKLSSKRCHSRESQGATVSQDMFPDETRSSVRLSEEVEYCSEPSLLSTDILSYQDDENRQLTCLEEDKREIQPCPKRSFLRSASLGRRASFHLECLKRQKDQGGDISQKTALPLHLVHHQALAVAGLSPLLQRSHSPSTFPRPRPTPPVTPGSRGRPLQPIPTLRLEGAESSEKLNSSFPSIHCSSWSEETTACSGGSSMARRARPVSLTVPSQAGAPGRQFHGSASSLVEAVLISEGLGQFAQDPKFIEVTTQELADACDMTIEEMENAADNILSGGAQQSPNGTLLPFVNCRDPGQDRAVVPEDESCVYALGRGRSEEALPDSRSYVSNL

SMILES	AC50 [1]	AC50 [2]	AC50 [3]	AC50 [4]	AC50 [5]	AC50 [6]	AC50 [7]	AC50 [8]	AC50 [9]	AC50 [10]	AC50 [11]
Cc1c(C(=O)NN2CCCCC2)nn(-c2ccc(Cl)cc2Cl)c1-c1ccc(Cl)cc1 [RIMONABANT]	> 30 µM	3.19 µM	> 30 µM	> 30 µM	28.2 µM	> 30 µM	–	–	–	–	–
CS(=O)(=O)c1ccc(C2=C(c3ccccc3)C(=O)OC2)cc1 [ROFECOXIB]	> 30 µM	> 10 µM	–	> 30 µM	24.1 µM	> 30 µM	> 30 µM	> 30 µM	> 30 µM	> 10 µM	> 30 µM
Cn1nnc2c(C(N)=O)ncn2c1=O [TEMOZOLOMIDE]	> 30 µM	> 10 µM	> 30 µM	> 30 µM	> 30 µM	> 30 µM	–	–	–	> 10 µM	–
CCCN1C[C@H](CSC)C[C@@H]2c3cccc4[nH]cc(c34)C[C@H]21 [PERGOLIDE]	> 30 µM	> 10 µM	–	> 30 µM	> 30 µM	> 30 µM	–	–	–	12.9 µM	–
C[C@]12CCC(=O)C=C1CC[C@@H]1[C@@H]2[C@@H](O)C[C@@]2(C)[C@H]1CC[C@]2(O)C(=O)CO [HYDROCORTISONE]	> 30 µM	> 10 µM	–	> 30 µM	> 30 µM	> 30 µM	–	–	–	> 10 µM	–
O=C1Nc2ccc(Cl)cc2[C@@](C#CC2CC2)(C(F)(F)F)O1 [EFAVIRENZ]	> 30 µM	18.8 µM	> 30 µM	> 30 µM	> 30 µM	> 30 µM	–	–	–	–	–
CC(C)C[C@H]1C(=O)N2CCC[C@H]2[C@]2(O)O[C@](NC(=O)[C@@H]3C=C4c5cccc6[nH]c(Br)c(c56)C[C@H]4N(C)C3)(C(C)C)C(=O)N12 [BROMOCRIPTINE]	> 30 µM	> 10 µM	–	> 30 µM	> 30 µM	> 30 µM	1.78 µM	–	> 30 µM	12.8 µM	> 30 µM
